According to article PMC4690157, “Sulfur Isotope Effects of Dissimilatory Sulfite Reductase” (Frontiers in Microbiology, 2015):

What was measured:
[1] = biological target: T1, D. vulgaris DsrAB (Nitratidesulfovibrio vulgaris, UniProt P45574+P45575); experiment: sulfite loss over […] h by HPLC of monobromobimane derivatives; Michaelis-Menten fit; format: biochemical; conditions: H2 / [NiFe] hydrogenase / methyl viologen as electron donor system; 50 mM phosphate pH 7.1; anoxic; 20 or 31 °C (fractionation conditions)
T1 construct: gene dsvA; native, purified from D. vulgaris cells (Q-Sepharose); heterodimeric DsrAB with siroheme (desulfoviridin)
T1 sequence (P45574 2-437): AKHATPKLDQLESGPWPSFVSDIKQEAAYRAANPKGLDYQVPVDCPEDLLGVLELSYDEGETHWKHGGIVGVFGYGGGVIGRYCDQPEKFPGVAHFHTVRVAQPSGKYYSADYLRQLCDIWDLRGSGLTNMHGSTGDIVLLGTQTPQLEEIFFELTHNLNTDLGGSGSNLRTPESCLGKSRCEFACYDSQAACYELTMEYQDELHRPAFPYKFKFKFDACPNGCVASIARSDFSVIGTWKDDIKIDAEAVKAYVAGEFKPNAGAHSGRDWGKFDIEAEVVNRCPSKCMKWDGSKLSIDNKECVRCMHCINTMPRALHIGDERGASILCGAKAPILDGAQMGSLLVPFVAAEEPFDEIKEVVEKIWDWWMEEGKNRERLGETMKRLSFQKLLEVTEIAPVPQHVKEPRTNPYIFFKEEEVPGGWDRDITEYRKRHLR
T1 sequence (P45575 2-381): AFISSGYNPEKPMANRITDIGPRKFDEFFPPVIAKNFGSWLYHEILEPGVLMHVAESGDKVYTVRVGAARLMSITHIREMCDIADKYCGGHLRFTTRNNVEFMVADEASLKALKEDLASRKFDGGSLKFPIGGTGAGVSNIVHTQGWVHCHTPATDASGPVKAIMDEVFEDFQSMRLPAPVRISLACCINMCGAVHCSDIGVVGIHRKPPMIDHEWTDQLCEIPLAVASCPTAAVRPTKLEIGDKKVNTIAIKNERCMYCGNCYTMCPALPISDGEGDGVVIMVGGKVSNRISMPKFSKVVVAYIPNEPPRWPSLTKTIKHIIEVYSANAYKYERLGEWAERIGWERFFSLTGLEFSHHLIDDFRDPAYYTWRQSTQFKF

[2] = biological target: T2, A. fulgidus DsrAB (Archaeoglobus fulgidus, UniProt Q59109+Q59110); experiment: closed-system in vitro sulfite reduction; sulfite loss and product accumulation (fuchsin assay, cyanolysis); format: biochemical; conditions: 15 mM initial sulfite; 65 °C; pH 7.1; H2 / [NiFe] hydrogenase / methyl viologen as electron donor system
T2 construct: gene dsrA; native, purified from A. fulgidus cells; heterodimeric DsrAB with siroheme; free of DsrC
T2 sequence (Q59109 2-418): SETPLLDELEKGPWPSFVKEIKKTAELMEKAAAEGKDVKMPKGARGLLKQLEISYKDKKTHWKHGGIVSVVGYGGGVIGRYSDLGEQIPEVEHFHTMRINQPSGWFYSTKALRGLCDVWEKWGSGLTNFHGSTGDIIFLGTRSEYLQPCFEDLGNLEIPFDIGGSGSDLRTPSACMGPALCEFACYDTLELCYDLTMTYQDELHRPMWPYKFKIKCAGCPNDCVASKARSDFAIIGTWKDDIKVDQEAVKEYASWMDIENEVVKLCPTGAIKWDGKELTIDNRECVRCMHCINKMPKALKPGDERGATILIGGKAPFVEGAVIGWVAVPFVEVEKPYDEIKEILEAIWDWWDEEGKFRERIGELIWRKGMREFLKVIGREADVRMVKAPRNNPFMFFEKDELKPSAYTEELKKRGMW
T2 sequence (Q59110 whole entry): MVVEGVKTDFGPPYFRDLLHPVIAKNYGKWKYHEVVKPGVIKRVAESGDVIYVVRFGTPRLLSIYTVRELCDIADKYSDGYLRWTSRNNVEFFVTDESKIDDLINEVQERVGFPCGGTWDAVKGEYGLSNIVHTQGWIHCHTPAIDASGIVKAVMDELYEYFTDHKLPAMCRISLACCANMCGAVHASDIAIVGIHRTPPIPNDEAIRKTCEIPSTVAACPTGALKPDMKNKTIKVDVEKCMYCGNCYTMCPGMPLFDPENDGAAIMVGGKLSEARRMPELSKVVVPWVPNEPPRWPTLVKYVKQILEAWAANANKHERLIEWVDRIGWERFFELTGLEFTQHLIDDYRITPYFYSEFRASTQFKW

O=S(O)O [sulfite]
Km [1]: solved for experimental Km and Vmax under our conditions
closed-system in vitro sulfite reduction; sulfite loss and product accumulation [2]: showed consistent loss of sulfite and accumulation of products between replicates
